The values that follow come from ChEMBL document CHEMBL5244272 (Eur J Med Chem, 2021).

Assay [1] relates to Plasmodium berghei. Kind of assay: Antimalarial activity against Plasmodium berghei infected in mouse at less than 10 mg/kg, po. It counts as functional.
The test system of assay [2] is Plasmodium falciparum. Kind of assay: Antimalarial activity against Plasmodium falciparum. It counts as functional, organism-based.
Assay [3] deals with Plasmodium falciparum. Kind of assay: Potency index, ratio of artesunate IC50 to test compound IC50 for chloroquine resistant Plasmodium falciparum. It counts as functional.
Assay [4] relates to Plasmodium yoelii. Kind of assay: Antimalarial activity against multidrug resistant Plasmodium yoelii infected in swiss mouse assessed as reduction in parasitaemia at 48 mg/kg, po measured on day 4. It counts as functional. Details: scale not given: the % may be the effect or the level left. The settings on record: time 4 day.
Assay [5] deals with Plasmodium yoelii. Kind of assay: Antimalarial activity against multidrug resistant Plasmodium yoelii infected in swiss mouse assessed as reduction in parasitaemia at 96 mg/kg, po. Details: scale not given: the % may be the effect or the level left. Format: functional.
In assay [6] the test system is Plasmodium yoelii. Nature of the assay: Antimalarial activity against multidrug resistant Plasmodium yoelii infected in swiss mouse assessed as increase in survival at 48 mg/kg, po after 28 days. Conditions: time 28 day. It counts as functional.
In assay [7] the test system is Plasmodium falciparum. Kind of assay: Antimalarial activity against Plasmodium falciparum W2. It counts as functional, organism-based.
Assay [8] has as its system Plasmodium falciparum. Kind of assay: Antimalarial activity against Plasmodium falciparum K1. It counts as functional, organism-based.
Assay [9] has as its system Plasmodium falciparum. Nature of the assay: Antimalarial activity against Plasmodium falciparum NF54. Format: functional, organism-based.
The subject of assay [10] is Plasmodium falciparum. Nature of the assay: Antimalarial activity against late stage Plasmodium falciparum gametocytes. It counts as functional, organism-based.
Assay [11] concerns Plasmodium chabaudi. Kind of assay: Antimalarial activity against Plasmodium chabaudi infected in mouse. It counts as functional.
For assay [12], the system named is Plasmodium falciparum. Kind of assay: Antimalarial activity against Plasmodium falciparum 3D7. It counts as functional, organism-based.
Assay [13] has as its system Plasmodium yoelii. Nature of the assay: Antimalarial activity against Plasmodium yoelii infected in sc dosed mouse. Format: functional.
Assay [14] has as its system Plasmodium yoelii. Kind of assay: Potency index, ratio of artesunate ED90 to test compound ED90 for Plasmodium yoelii. Format: functional.
The subject of assay [15] is Plasmodium berghei. Nature of the assay: Potency index, ratio of artesunate ED90 to test compound ED90 for Plasmodium berghei. Format: functional.
Assay [16] deals with Plasmodium falciparum. Nature of the assay: Antimalarial activity against Plasmodium falciparum D6. It counts as functional, organism-based.
Assay [17] relates to Plasmodium berghei. Nature of the assay: Antimalarial activity against Plasmodium berghei infected in sc dosed mouse. Format: functional. The settings on record: Plasmodium berghei.
Assay [18] has as its system Plasmodium berghei. Kind of assay: Potency index, ratio of artesunic acid ED50 to test compound ED50 for Plasmodium berghei. Format: functional.
Assay [19] has as its system Plasmodium berghei. Nature of the assay: Antimalarial activity against Plasmodium berghei infected in mouse. It counts as functional.
Assay [20] deals with Plasmodium berghei. Nature of the assay: Antimalarial activity against Plasmodium berghei K173 infected in mouse. The settings on record: Plasmodium berghei, K173. Format: functional.
The test system of assay [21] is Plasmodium yoelii. Nature of the assay: Antimalarial activity against Plasmodium yoelii BY265 infected in mouse assessed reduction in parasitemia at 4.4 to […], iv administered for 4 consecutive days. It counts as functional. More on the design: scale not given: the % may be the effect or the level left.
The test system of assay [22] is Plasmodium berghei. Kind of assay: Antimalarial activity against Plasmodium berghei infected in mouse assessed increase in survival time. It counts as functional.
Assay [23] relates to Plasmodium berghei. Nature of the assay: Antimalarial activity against Plasmodium berghei infected in mouse assessed reduction in parasitemia measured after 4 days. Format: functional. Details: scale not given: the % may be the effect or the level left. Conditions: time 4 day.
The subject of assay [24] is Plasmodium berghei. Nature of the assay: Antimalarial activity against Plasmodium berghei infected in mouse assessed cured animal rate measured after 25 days. Format: functional. Conditions: time 25 day.
Assay [25] deals with Plasmodium yoelii. Kind of assay: Antimalarial activity against multidrug resistant Plasmodium yoelii infected in swiss mouse assessed as reduction in parasitaemia at 96 mg/kg, po measured on day 4. It counts as functional. Conditions: time 4 day. Details: scale not given: the % may be the effect or the level left.
Assay [26] concerns Plasmodium yoelii. Kind of assay: Antimalarial activity against multidrug resistant Plasmodium yoelii infected in swiss mouse assessed as increase in survival at 96 mg/kg, po after 28 days. Format: functional. Conditions: time 28 day.
Assay [27] has as its system Plasmodium falciparum. Nature of the assay: Potency index, ratio of artesunate IC50 to test compound IC50 for Plasmodium falciparum NF54. Format: functional.
Assay [28] relates to Plasmodium falciparum. Nature of the assay: Antimalarial activity against chloroquine-sensitive Plasmodium falciparum NF54. It counts as functional, organism-based.
Assay [29] deals with Cytomegalovirus. Kind of assay: Antiviral activity against HCMV. It counts as functional, organism-based. Conditions: Human betaherpesvirus 5.
Assay [30] relates to ADR5000 cell line. Kind of assay: Cytotoxicity against human CEM/ADR5000 cells. It counts as functional, cell-based.
In assay [31] the test system is CCRF-CEM. Kind of assay: Cytotoxicity against human CCRF-CEM cells. Format: functional, cell-based.
For assay [32], the system named is Plasmodium falciparum. Nature of the assay: Antimalarial activity against ART-resistant Plasmodium falciparum harboring R539T mutant assessed as increase in survival at 700 nM. Format: functional.
The subject of assay [33] is Plasmodium falciparum. Nature of the assay: Potency index, ratio of artemisinin IC50 to test compound IC50 for Plasmodium falciparum K1. It counts as functional.
Assay [34] has as its system Plasmodium falciparum. Nature of the assay: Potency index, ratio of artemisinin IC50 to test compound IC50 for Plasmodium falciparum HB3. Format: functional.
The mark [35] stands for this setting: read-out: ED50 (the source's name).

≈ marks a conversion by molar mass, not a printed value. A value given as a limit tells only on which side of the number the result lay.

With `C[C@@H]1CC[C@H]2C(CN3CCN(CCO)CC3)=C(C(F)(F)F)O[C@@H]3O[C@]4(C)CC[C@@H]1[C@]32OO4`, the Activity in assay [1] is recorded as 100%.

For `C[C@H]1[C@H](CCCO)O[C@@H]2O[C@]3(C)CC[C@H]4[C@H](C)CC[C@@H]1[C@@]24OO3`, in assay [2], it took 0.23 ng/mL (≈ 0.705 nM) to reach half-maximal inhibition (IC50). Moreover, in assay [3], the “Ratio IC50” value is recorded as 5.

For `C=C(c1ccc(-c2ccccc2)cc1)C1COC2(CCC(Nc3ccccc3)CC2)OO1` (stereo not given), the Activity in [4] was 100%; in assay [5], 100%; in assay [6], 60%.

Regarding `C[C@@H]1CC[C@H]2[C@@H](C)C(=O)N(S(=O)(=O)c3cccs3)[C@@H]3O[C@]4(C)CC[C@@H]1[C@@]23OO4`, the IC50 in assay [7] was 4.26 nM; in assay [8], 6.27 nM; in assay [9], 5.68 nM; in assay [10], 8.6 nM.

In the case of `C[C@H]1[C@@H](CCc2ccc(C(=O)O)cc2)O[C@@H]2O[C@]3(C)CC[C@H]4[C@H](C)CC[C@@H]1[C@@]24OO3`, the EC50 in assay [8] (setting [35]) stood at 0.6 ng/mL (≈ 1.44 nM); in [12] (setting [35]) it was 1.1 ng/mL. Besides, the Activity in assay [11] is given as 98.7%.

Consider `C[C@H]1[C@H](Nc2ccc(F)cc2)O[C@@H]2O[C@]3(C)CC[C@H]4[C@H](C)CC[C@@H]1[C@@]24OO3`, for which the results for the ED90 in assay [13] and in assay [17] were 0.6 mg/kg and 0.35 mg/kg, respectively. Further, the Ratio in assay [14] and in assay [15] was 13 in each case. Further, the values for the concentration for half-maximal inhibition (IC50) in assay [7] and in [16] were 0.64 ng/mL and 0.64 ng/mL (≈ 1.7 nM), respectively.

Take `CC(O[C@H]1O[C@@H]2O[C@@]3(C)CC[C@H]4[C@H](C)CC[C@@H]([C@H]1C)[C@@]24OO3)c1ccc(CN2CCOCC2)c(O)c1` (stereo not given in full): the “Ratio ED50” value in assay [18] is recorded as 10. In addition, the ED50 in assay [19] (Plasmodium berghei) and in assay [20] was 0.64 mg/kg/day each time.

`CCCCCCCCCCCCCC[N+](C)(C)CCOC(=O)c1ccc(COC2O[C@@H]3O[C@]4(C)CC[C@H]5[C@H](C)CC[C@@H]([C@H]2C)[C@@]35OO4)cc1.[Br-]` (stereo not given in full) gave an Activity in assay [21] greater than 50%.

In [22], `CCN(CC)Cc1cc(C2CCC3(CC2)OOC2(OO3)C3CC4CC(C3)CC2C4)ccc1O` (stereo not given) gave a Time of 27 days. In addition, the Activity is greater than 99.7% in assay [23] and 66% in [24].

On to `C=C(c1ccccc1)C1COC2(OO1)C1CC3CC(C1)CC2C3` (stereo not given), for which the Activity in assay [25] is recorded as 96%; in [26], 80%.

As for `C[C@H]1[C@H](OC(=O)c2cccc3c2OCO3)O[C@@H]2O[C@]3(C)CC[C@H]4[C@H](C)CC[C@@H]1[C@@]24OO3`, in assay [27], the “Ratio IC50” value came to 2.3. Moreover, in [28], 8.08 nM corresponded to half-maximal inhibition (IC50).

Consider `C[C@H]1[C@H](OC(=O)CCC(=O)OCCOC(=O)CC(=O)OCCOC(=O)CCC(=O)O[C@@H]2O[C@@H]3O[C@]4(C)CC[C@H]5[C@H](C)CC[C@@H]([C@H]2C)[C@@]35OO4)O[C@@H]2O[C@]3(C)CC[C@H]4[C@H](C)CC[C@@H]1[C@@]24OO3`, for which the figures for the EC50 in [29] and in [12] (read-out: EC50) were 0.57 nM and 1.4 nM, respectively.

Regarding `C[C@H]1[C@H](OC(=O)CCC(=O)Nc2ccc3ncnc(Cc4ccc(Cl)c(Cl)c4)c3c2)O[C@@H]2O[C@]3(C)CC[C@H]4[C@H](C)CC[C@@H]1[C@@]24OO3`, the values for the EC50 in assay [30], in assay [12] (read-out: EC50) and in assay [31] were 500 nM, 1.4 nM and 2800 nM, respectively.

As to `CC(C)(N)CNC(=O)C[C@H]1CC[C@]2(CC1)OO[C@]1(O2)C2CC3CC(C2)CC1C3` [OZ277], the Activity in [32] was found to be 0.01%; in assay [19], 67%; in [24], 60%.

Regarding `COP(=O)(OCC[C@H]1O[C@@H]2O[C@]3(C)CC[C@H]4[C@H](C)CC[C@@H]([C@H]1C)[C@@]24OO3)OCC[C@H]1O[C@@H]2O[C@]3(C)CC[C@H]4[C@H](C)CC[C@@H]([C@H]1C)[C@@]24OO3`, the “Ratio IC50” value in [33] and in assay [34] was greater than 50 throughout.
